In US12319664B2, “Herbicidally active 3-phenylisoxazoline-5-carboxamides of cyclopentenylcarboxylic acid derivatives” (Bayer Aktiengesellschaft, priority 2018, dated 2025):

Assays:
[1] = tested on: ECHCG; assay: Pre-emergence herbicidal action against ECHCG; format: in vivo, Echinochloa crus-galli; conditions: application rate 80 g/ha, scored visually after about 3 weeks vs untreated controls (100% = plants have died, 0% = like control plants)
Description: (§1) 1. Pre-emergence herbicidal action against harmful plants and crop plant compatibility Seeds of monocotyledonous and dicotyledonous weed plants and crop plants are placed in plastic or wood-fibre pots and covered with soil. The compounds of the invention, formulated in the form of wettable powders (WP) or as emulsion concentrates (EC), are then applied onto the surface of the covering soil as aqueous suspension or emulsion with addition of 0.5% additive at a water application rate of 600 l/ha (converted). After the treatment, the pots are placed in a greenhouse and kept under good growth conditions for the trial plants. After about 3 weeks, the effect of the preparations is scored visually in comparison with untreated controls as percentages. For example, 100% activity=the plants have died, 0% activity=like control plants. [table]

[2] = tested on: POLCO; assay: Post-emergence herbicidal action against POLCO; format: in vivo, Polygonum convolvulus; conditions: application rate 80 g/ha, rated visually about 3 weeks after treatment
Procedure, shortened: (§2)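 Test plants grown from seed in greenhouse pots of sandy loam were treated post-emergence at the one-leaf stage. Damage, from 0% (like controls) to 100% (plants died), was assessed visually about 3 weeks later.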

[3] = tested on: SETVI; assay: Pre-emergence herbicidal action against SETVI; format: in vivo, Setaria viridis; conditions: application rate 80 g/ha, scored visually after about 3 weeks vs untreated controls (100% = plants have died, 0% = like control plants)
Description: as §1

[4] = tested on: STEME; assay: Pre-emergence herbicidal action against STEME; format: in vivo, Stellaria media; conditions: application rate 80 g/ha
Description: as §1

[5] = tested on: ALOMY; assay: Post-emergence herbicidal action against ALOMY; format: in vivo, Alopecurus myosuroides; conditions: application rate 80 g/ha, rated visually after about 3 weeks
Procedure, shortened: as §2

[6] = tested on: LOLRI; assay: Pre-emergence herbicidal action against LOLRI; format: in vivo, Lolium rigidum; conditions: application rate 80 g/ha, scored visually after about 3 weeks vs untreated controls (100% = plants have died, 0% = like control plants)
Description: as §1

[7] = tested on: AVEFA; assay: Pre-emergence herbicidal action against AVEFA; format: in vivo, Avena fatua; conditions: application rate 80 g/ha, scored visually after about 3 weeks vs untreated controls (100% = plants have died, 0% = like control plants)
Description: as §1

[8] = tested on: HORMU; assay: Post-emergence herbicidal action against HORMU; format: in vivo, Hordeum murinum; conditions: application rate 80 g/ha
Procedure, shortened: as §2

[9] = tested on: AVEFA; assay: Post-emergence herbicidal action against AVEFA; format: in vivo, Avena fatua; conditions: application rate 80 g/ha, rated visually after about 3 weeks
Procedure, shortened: as §2

[10] = tested on: AMARE; assay: Pre-emergence herbicidal action against AMARE; format: in vivo, Amaranthus retroflexus; conditions: application rate 80 g/ha
Description: as §1

[11] = tested on: SETVI; assay: Post-emergence herbicidal action against SETVI; format: in vivo, Setaria viridis; conditions: application rate 80 g/ha, rated visually after about 3 weeks
Procedure, shortened: as §2

[12] = tested on: STEME; assay: Post-emergence herbicidal action against STEME; format: in vivo, Stellaria media; conditions: application rate 80 g/ha, rated visually about 3 weeks after treatment
Procedure, shortened: as §2

[13] = tested on: LOLRI; assay: Post-emergence herbicidal action against LOLRI; format: in vivo, Lolium rigidum; conditions: application rate 80 g/ha, rated visually after about 3 weeks
Procedure, shortened: as §2

[14] = tested on: HORMU; assay: Pre-emergence herbicidal action against HORMU; format: in vivo, Hordeum murinum; conditions: application rate 80 g/ha
Description: as §1

[15] = tested on: ECHCG; assay: Post-emergence herbicidal action against ECHCG; format: in vivo, Echinochloa crus-galli; conditions: application rate 80 g/ha, rated visually after about 3 weeks
Procedure, shortened: as §2

[16] = tested on: VIOTR; assay: Post-emergence herbicidal action against VIOTR; format: in vivo, Viola tricolor; conditions: application rate 80 g/ha, rated visually about 3 weeks after treatment
Procedure, shortened: as §2

[17] = tested on: AMARE; assay: Post-emergence herbicidal action against AMARE; format: in vivo, Amaranthus retroflexus; conditions: application rate 80 g/ha, rated visually about 3 weeks after treatment
Procedure, shortened: as §2

[18] = tested on: ALOMY; assay: Pre-emergence herbicidal action against ALOMY; format: in vivo, Alopecurus myosuroides; conditions: application rate 80 g/ha, scored visually after about 3 weeks vs untreated controls (100% = plants have died, 0% = like control plants)
Description: as §1

[19] = tested on: VERPE; assay: Pre-emergence herbicidal action against VERPE; format: in vivo, Veronica persica; conditions: application rate 80 g/ha
Description: as §1

[20] = tested on: PHBPU; assay: Post-emergence herbicidal action against PHBPU; format: in vivo, Pharbitis purpurea; conditions: application rate 80 g/ha, rated visually about 3 weeks after treatment
Procedure, shortened: as §2

[21] = tested on: PHBPU; assay: Pre-emergence herbicidal action against PHBPU; format: in vivo, Pharbitis purpurea; conditions: application rate 80 g/ha
Description: as §1

[22] = tested on: VERPE; assay: Post-emergence herbicidal action against VERPE; format: in vivo, Veronica persica; conditions: application rate 80 g/ha
Procedure, shortened: as §2

[23] = tested on: VIOTR; assay: Pre-emergence herbicidal action against VIOTR; format: in vivo, Viola tricolor; conditions: application rate 80 g/ha
Description: as §1

[24] = tested on: ABUTH; assay: Post-emergence herbicidal action against ABUTH; format: in vivo, Abutilon theophrasti; conditions: application rate 80 g/ha, rated visually about 3 weeks after treatment
Procedure, shortened: as §2

[25] = tested on: POLCO; assay: Pre-emergence herbicidal action against POLCO; format: in vivo, Polygonum convolvulus; conditions: application rate 80 g/ha
Description: as §1

SMILES | Herbicidal action against [%] ECHCG [1] | Herbicidal action against [%] POLCO [2] | Herbicidal action against [%] SETVI [3] | Herbicidal action against [%] STEME [4] | Herbicidal action against [%] ALOMY [5] | Herbicidal action against [%] LOLRI [6] | Herbicidal action against [%] AVEFA [7] | Herbicidal action against [%] HORMU [8] | Herbicidal action against [%] AVEFA [9] | Herbicidal action against [%] AMARE [10] | Herbicidal action against [%] SETVI [11] | Herbicidal action against [%] STEME [12] | Herbicidal action against [%] LOLRI [13] | Herbicidal action against [%] HORMU [14] | Herbicidal action against [%] ECHCG [15] | Herbicidal action against [%] VIOTR [16] | Herbicidal action against [%] AMARE [17] | Herbicidal action against [%] ALOMY [18] | Herbicidal action against [%] VERPE [19] | Herbicidal action against [%] VERPE [22] | other results
CONC(=O)C1=CCC(NC(=O)C2(C)CC(c3cccc(F)c3)=NO2)C1 (mixture of isomers) [IV-04] | 90% | 80% | 100% | 90% | 90% | 100% | 90% | 90% | 90% | 90% | 80% | 80% | 90% | 90% | 80% | 80% | 80% | 90% | – | – | –
CC1(C(=O)N[C@@H]2CC=C(C(=O)O)C2)CC(c2cccc(F)c2)=NO1 (mixture of isomers) [III-01, (4R)-4-[[[(5SR)-3-(3-fluorophenyl)-5-methyl-4H-1,2-oxazol-5-yl]carbonyl]amino]cyclopentene-1-carboxylic acid] | – | – | – | – | – | – | – | – | 80% | – | – | – | – | 80% | – | – | – | – | 90% | – | –
CC1(C(=O)N[C@H]2CC=C(C(=O)O)C2)CC(c2cccc(F)c2)=NO1 (some centres unmarked) [III-02] | – | – | – | 80% | 80% | 100% | 80% | 100% | 90% | 80% | 80% | 80% | 90% | 100% | 90% | – | 80% | 100% | 90% | 80% | Herbicidal action against [%] PHBPU [20]: 80%; Herbicidal action against [%] PHBPU [21]: 80%
CC1(C(=O)N[C@H]2C=C[C@@H](C(=O)N3CCCO3)C2)CC(c2cc(F)cc(F)c2)=NO1 (some centres unmarked) [II-06] | 90% | 80% | 100% | 90% | 90% | 100% | 90% | 80% | 80% | 100% | 80% | 80% | 90% | 100% | 80% | – | 80% | 90% | 90% | 80% | Herbicidal action against [%] VIOTR [23]: 100%; Herbicidal action against [%] PHBPU [20]: 80%; Herbicidal action against [%] ABUTH [24]: 80%; Herbicidal action against [%] POLCO [25]: 80%
CN(C)NC(=O)C1=CCC(NC(=O)C2(C)CC(c3cccc(F)c3)=NO2)C1 (mixture of isomers) [IV-06] | 90% | 80% | 100% | 90% | 90% | 100% | – | 90% | 90% | 80% | 80% | 80% | 80% | 90% | 80% | 90% | 80% | 100% | – | – | Herbicidal action against [%] VIOTR [23]: 100%; Herbicidal action against [%] PHBPU [21]: 90%; Herbicidal action against [%] POLCO [25]: 80%
COC(=O)C1=CC[C@@H](NC(=O)C2(C)CC(c3cccc(F)c3)=NO2)C1 (mixture of isomers) [III-03, methyl (4R)-4-[[[(5SR)-3-(3-fluorophenyl)-5-methyl-4H-1,2-oxazol-5-yl]carbonyl]amino]cyclopentene-1-carboxylate] | – | – | – | – | – | – | – | 90% | 90% | – | – | – | 80% | – | – | – | – | – | 80% | – | –
CC1(C(=O)NC2C=CC(C(=O)N3CCCCO3)C2)CC(c2cc(F)cc(F)c2)=NO1 (mixture of isomers) [II-07] | 90% | – | 100% | 100% | 80% | 100% | 80% | – | 80% | 100% | – | 90% | 80% | 90% | 80% | 80% | – | 100% | 100% | 80% | Herbicidal action against [%] VIOTR [23]: 100%; Herbicidal action against [%] POLCO [25]: 100%
